Data taken from patent publication US6358883B1, “Pesticidal and parasiticidal use of 1-aryl-1-(substituted thio, sulfinyl and sulfonyl)-2-nitroethane compounds” (American Cyanamid Company, priority 1998, dated 2002).

Tests used:
Assay type in all cases: in vivo
[1] = tested on: Diabrotica virgifera virgifera Leconte, 2nd instar western corn rootworm (WCR); experiment: Western corn rootworm (WCR) soil test; set-up: key: 0 = no effect; 1 = 10-25% kill; 2 = 26-35% kill; 3 = 36-45% kill; 4 = 46-55% kill; 5 = 56-65% kill; 6 = 66-75% kill; 7 = 76-85% kill; 8 = 86-99% kill; 9 = 100% kill
Method in brief: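 Ten 2nd-instar rootworm larvae are placed in jars of moist soil with millet seed and talc treated with 1.25 mg active ingredient (roughly 50 kg/ha) from a 35% acetone-in-water solution. After 5 days mortality is scored, counting missing larvae as dead.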

[2] = tested on: Spodoptera eridania, 2nd instar larvae, southern armyworm (SAW); experiment: Southern armyworm (SAW) leaf dip test; set-up: key: 0 = no effect; 1 = 10-25% kill; 2 = 26-35% kill; 3 = 36-45% kill; 4 = 46-55% kill; 5 = 56-65% kill; 6 = 66-75% kill; 7 = 76-85% kill; 8 = 86-99% kill; 9 = 100% kill
Method in brief: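 Ten 2nd instar caterpillars feed on a Sieva lima bean leaf that was dipped 3 seconds in test solution (stock 10,000 ppm in 35% acetone/water, water-diluted). Five days later, larvae are assessed for death, feeding reduction or abnormal molting.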

[3] = tested on: Aphis gossypii, cotton aphid (CA); experiment: Cotton aphid (CA) cotyledon dip test; set-up: key: 0 = no effect; 1 = 10-25% kill; 2 = 26-35% kill; 3 = 36-45% kill; 4 = 46-55% kill; 5 = 56-65% kill; 6 = 66-75% kill; 7 = 76-85% kill; 8 = 86-99% kill; 9 = 100% kill; settings: mortality after 5 days
Method in brief: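 Mortality was scored 5 days after dipping aphid-infested cotyledons, colonised overnight from a transfer leaf, into water dilutions of a 35% acetone/water compound solution.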

[4] = tested on: M. incognita (Root Knot Nematode) larvae; experiment: Evaluation of test compounds against M. incognita larvae in microtiter plate wells (movement score); settings: larvae scored for movement after 20-24 hours; also: key: A score of '9' indicates inactive worms with a straight, sticklike morphology; A score of '8' indicates inactive worms with a limp, curled or curved morphology; A score of '7' indicates dead/paralyzed worms after 72 hours
Method in brief: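 Scoring is by larval movement: dead or paralyzed worms count as positive, and a "7" means dead/paralyzed at 72 hours. Freshly hatched root-knot larvae (50-65 per well) in buffered S Medium were incubated with compounds under plate sealers for 20-24 h before the first read.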

[5] = tested on: Tetranychus urticae (OP-resistant strain), 2-spotted spider mite (TSM); experiment: 2-spotted spider mite (TSM) plant dip test; set-up: key: 0 = no effect; 1 = 10-25% kill; 2 = 26-35% kill; 3 = 36-45% kill; 4 = 46-55% kill; 5 = 56-65% kill; 6 = 66-75% kill; 7 = 76-85% kill; 8 = 86-99% kill; 9 = 100% kill; settings: mortality after 2 days
Method in brief: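 Mortality counted 2 days after a 3 s agitated dip of infested Sieva lima bean plants. Compound came from a 10,000 ppm stock in 35% aqueous acetone, with further dilution in water. Each primary leaf carried about 100 OP-resistant mites, allowed to settle ~2 h before dipping.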

[6] = tested on: Spodoptera eridania, eggs-southern armyworm (SAW-Eggs); experiment: Southern armyworm eggs (SAW-Eggs) treated diet test; set-up: key: 0 = no effect; 1 = 10-25% kill; 2 = 26-35% kill; 3 = 36-45% kill; 4 = 46-55% kill; 5 = 56-65% kill; 6 = 66-75% kill; 7 = 76-85% kill; 8 = 86-99% kill; 9 = 100% kill; settings: mortality after 7 days
Experimental: Test solutions are prepared by dissolving the test compound in a 35% acetone in water mixture to give a concentration of 10,000 ppm. Subsequent dilutions are made with water as needed. Spodoptera eridania, Eggs-southern Armyworm and Diabrotica undecimpunctata howardi, Eggs-southern Corn Rootworm (SAW-Eggs) and (SCR-Eggs) Wells containing artificial diet are treated with the test solutions and dried. The appropriate insect eggs are then placed in the wells. The wells are covered with vented, adhesive, clear plastic covers. After 7 days, mortality counts are made. [table]

[7] = tested on: C. elegans (Bristol strain); experiment: Evaluation of test compounds against C. elegans (motility, 96-well plate); set-up: key: 9=complete kill in 4 hours; 8=complete kill in 24 hours; 7=markedly reduced motility in approximately 95% of worms in 24 hours; 0=normal motility, same as controls; settings: motility at 4 and 24 hours
Method in brief: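 Activity is a semi-quantitative visual score of adult and larval movement, read at 4 h and 24 h post-immersion at 20 °C after gentle tapping. Worms were suspended in Na buffer in wells where compound, dissolved in 80% acetone, had been evaporated.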

Structure (SMILES) | WCR (50 ppm) rating [1] | SAW (300 ppm) rating [2] | CA (300 ppm) rating [3] | M. incognita (150 ppm) score [4] | TSM (300 ppm) rating [5] | SAW Eggs (300 ppm) rating [6] | Rating Against C. elegans (150 ppm) [7]
CCCCOC(=O)CSC(C[N+](=O)[O-])c1ccccc1 (stereo not drawn) [Example 7] | 0 | 0 | 0 | 9 | 0 | 0 | 8
COC(=O)CSC(C[N+](=O)[O-])c1ccc(F)cc1 (stereo not drawn) [Example 15] | 3 (3 = 36-45% kill) | 0 | 0 | 9 | 0 | 0 | 9
CCCCC(CC)COC(=O)CSC(C[N+](=O)[O-])c1ccccc1 (stereo not drawn) [Example 9] | 4 (4 = 46-55% kill) | 0 | 0 | 0 | 0 | 0 | 0
CCCCOC(=O)CSC(C[N+](=O)[O-])c1ccc(F)cc1 (stereo not drawn) [Example 17] | 0 | 0 | 0 | 9 | 5 (5 = 56-65% kill) | 0 | 8
CCCCC(CC)COC(=O)CSC(C[N+](=O)[O-])c1ccc(F)cc1 (stereo not drawn) [Example 12] | 0 | 0 | 0 | 0 | 0 | 0 | 0
CC(C)CCCCCOC(=O)CSC(C[N+](=O)[O-])c1ccc(F)cc1 (stereo not drawn) [Example 11] | 0 | 0 | 0 | 0 | 0 | 0 | 0
O=[N+]([O-])CC(SCc1ccccc1)c1ccc(F)cc1 (stereo not drawn) [Example 13] | 0 | 0 | 7 (7 = 76-85% kill) | 0 | 0 | 0 | 8
CC(C)CCCCCOC(=O)CSC(C[N+](=O)[O-])c1ccccc1 (stereo not drawn) [Example 8] | 0 | 0 | 0 | 0 | 0 | 0 | 0
O=[N+]([O-])CC(SCc1ccccc1)c1ccccc1 (stereo not drawn) [Example 10] | 0 | 0 | 0 | 0 | 0 | 0 | 0
CCOC(=O)CSC(C[N+](=O)[O-])c1ccc(F)cc1 (stereo not drawn) [Example 16] | 0 | 0 | 0 | 9 | 0 | 0 | 8
CCCSC(C[N+](=O)[O-])c1ccc(F)cc1 (stereo not drawn) [Example 14] | 0 | 0 | 0 | 0 | 0 | 0 | 0
CCOC(=O)CSC(C[N+](=O)[O-])c1ccccc1 (stereo not drawn) [Example 6] | 7 (7 = 76-85% kill) | 0 | 0 | 9 | 0 | 0 | 8
